Data: patent publication US20220274961A1, “SUBSTITUTED FUSED BI- OR TRI- HETEROCYCLIC COMPOUNDS AS EHMT2 INHIBITORS” (priority 2016, published 2022)
Each block holds one compound with its values, some of them ahead of it.

Target: T1, EHMT2 (Homo sapiens, UniProt Q96KQ7)
T1 construct: endogenous in cells; host or cells: MDA-MB-231 (ATCC)
T1 sequence (Q96KQ7 1-1210): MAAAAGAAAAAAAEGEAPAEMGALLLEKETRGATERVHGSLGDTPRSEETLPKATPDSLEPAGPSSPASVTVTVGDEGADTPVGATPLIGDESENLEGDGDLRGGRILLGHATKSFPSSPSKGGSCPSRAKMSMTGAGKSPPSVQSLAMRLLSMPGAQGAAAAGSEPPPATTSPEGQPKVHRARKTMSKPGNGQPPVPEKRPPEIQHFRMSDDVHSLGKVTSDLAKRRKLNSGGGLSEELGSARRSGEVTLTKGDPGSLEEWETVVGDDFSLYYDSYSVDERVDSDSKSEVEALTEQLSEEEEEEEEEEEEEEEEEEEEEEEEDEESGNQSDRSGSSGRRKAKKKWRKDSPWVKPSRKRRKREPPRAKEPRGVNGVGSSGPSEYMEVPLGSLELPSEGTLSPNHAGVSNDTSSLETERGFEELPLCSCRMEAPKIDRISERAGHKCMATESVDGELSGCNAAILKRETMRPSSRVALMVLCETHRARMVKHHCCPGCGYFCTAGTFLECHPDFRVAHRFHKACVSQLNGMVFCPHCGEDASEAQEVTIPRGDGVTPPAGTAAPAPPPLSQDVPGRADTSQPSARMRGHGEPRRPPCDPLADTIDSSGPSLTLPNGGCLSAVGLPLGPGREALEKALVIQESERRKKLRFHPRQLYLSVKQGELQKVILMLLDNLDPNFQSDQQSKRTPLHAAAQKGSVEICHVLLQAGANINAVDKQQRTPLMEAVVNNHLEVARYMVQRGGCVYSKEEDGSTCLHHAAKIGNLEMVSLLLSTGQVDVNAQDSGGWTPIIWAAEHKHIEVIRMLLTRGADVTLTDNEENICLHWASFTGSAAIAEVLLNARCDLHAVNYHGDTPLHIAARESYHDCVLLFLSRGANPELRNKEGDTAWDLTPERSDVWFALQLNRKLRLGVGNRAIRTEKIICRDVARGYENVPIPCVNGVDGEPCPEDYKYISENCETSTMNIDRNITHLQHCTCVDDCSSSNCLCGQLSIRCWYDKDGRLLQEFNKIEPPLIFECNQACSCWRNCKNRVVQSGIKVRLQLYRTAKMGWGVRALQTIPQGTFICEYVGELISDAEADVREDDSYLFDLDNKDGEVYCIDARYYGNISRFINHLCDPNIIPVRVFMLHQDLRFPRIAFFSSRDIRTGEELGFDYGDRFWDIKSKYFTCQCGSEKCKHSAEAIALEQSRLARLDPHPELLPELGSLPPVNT
Experiment: MDA-MB-231 H3K9me2 in-cell Western assay (EHMT2 ICW)
Assay type: cell-based
Details: MDA-MB-231 cells, H3K9me2 in-cell Western; read-out: EHMT2 ICW (IC50 μM)
Excerpt: MDA-MB-231 cell line was purchased from ATCC (Manassas, Va., USA). RPMI/Glutamax medium, Penicillin-Streptomycin, Heat Inactivated Fetal Bovine Serum, and D-PBS were purchased from Life Technologies (Grand Island, N.Y., USA). Odyssey blocking buffer, 800CW goat anti-mouse IgG (H+L) antibody, and Licor Odyssey Infrared Scanner were purchased from Licor Biosciences, Lincoln, Nebr., USA. H3K9me2 mouse monoclonal antibody (Cat #1220) was purchased from Abcam (Cambridge, Mass., USA). 16% Paraformaldehyde was purchased from Electron Microscopy Sciences, Hatfield, Pa., USA). MDA-MB-231 cells were maintained in complete growth medium (RPMI supplemented with 10% v/v heat inactivated fetal bovine serum) and cultured at 37° C. under 5% CO2. UNC0638 was purchased from Sigma-Aldrich (St. Louis, Mo., USA).
General Procedure for MDA-MB-231 HEK9me2 in-cell Western Assay. Compound (100 nL) was added directly to 384-well cell plate. MDA-MB-231 cells (ATCC) were seeded in assay medium (RPMI/Glutamax supplemented with 10% v/v heat inactivated fetal bovine serum and 1% Penicillin/Streptomycin, Life Technologies) at a concentration of 3,000 cells per well to a Poly-D-Lysine coated 384-well cell culture plate with 50 μL per well. Plates were incubated at 37° C., 5% CO2 for 48 hours (BD Biosciences 356697). Plates were incubated at room temperature for 30 minutes and then incubated at 37° C., 5% CO2 for additional 48 hours. After the incubation, 50 μL per well of 8% paraformaldehyde (Electron Microscopy Sciences) in PBS was added to the plates and incubated at room temperature for 20 minutes. Plates were transferred to a Biotek 406 plate washer and washed 2 times with 100 μL per well of wash buffer (1×PBS containing 0.3% Triton X-100 (v/v)). Next, 60 μL per well of Odyssey blocking buffer (Licor Biosciences) was added to each plate and incubated for 1 hour at room temperature. Blocking buffer was removed and 20 μL of monoclonal primary antibody α-H3K9me2 (Abcam) diluted 1:800 in Odyssey buffer with 0.1% Tween 20 (v/v) were added and plates were incubated overnight (16 hours) at 4° C. Plates were washed 5 times with 100 μL per well of wash buffer. Next 20 μL per well of secondary antibody was added (1:500 800CW donkey anti-mouse IgG (H+L) antibody (Licor Biosciences), 1:1000 DRAQ5 (Cell Signaling Technology) in Odyssey buffer with 0.1% Tween 20 (v/v)) and incubated for 1 hour at room temperature. The plates were washed 5 times with […] wash buffer then 2 times with 100 μL per well of water. Plates were allowed to dry at room temperature then imaged on a Licor Odyssey Infrared Scanner (Licor Biosciences) which measured integrated intensity at 700 nm and 800 nm wavelengths. Both 700 and 800 channels were scanned.
% Inhibition Calculation. First, the ratio for each well was determined by:
Each plate included fourteen control wells of DMSO only treatment (Minimum Inhibition) as well as fourteen control wells (background wells) for maximum inhibition treated with control compound UNC0638 (Background wells).
The average of the ratio values for each well was calculated and used to determine the percent inhibition for each test well in the plate. Control compound was serially diluted three-fold in DMSO for a total of 10 test concentrations beginning at 1 μM. Percent inhibition was calculated as: […]
IC50 curves were generated using triplicate wells per concentration of compound. The IC50 is the concentration of compound at which measured methylation is inhibited by 50% as interpolated from the dose response curves. IC50 values were calculated using a non-linear regression (variable slope-four parameter fit model) with by the following formula:
where Top is fixed at 100% and Bottom is fixed to 0%, [I]=concentration of inhibitor, IC50=half maximal inhibitory concentration, and n=Hill Slope.

IC50: 0.1 to 1 µM
Compound: CNC1=Nc2cc(C#CC(C)N3CCCCC3)c(OC)cc2C12CCC2 (centres unmarked) [Compound 92]

IC50: 0.1 to 1 µM
Compound: COCCNC1=Nc2cc(C#CCN3CCCCC3)c(OC)cc2C12CCC2 [Compound 99]

IC50: < 0.1 µM
Compound: CNC1=Nc2cc(C#CCN3CCCC3)c(OC)cc2C12CCC2 [Compound 74]

IC50: 1 to 10 µM
Compound: COc1cc2c(cc1CNCCN1CCCC1)N=C(NC1CCOCC1)C21CCC1 [Compound 76]

IC50: 1 to 10 µM
Compound: CCNC1=Nc2cc(CNCCN3CCC3)c(OC)cc2C12CCC2 [Compound 72]

IC50: 0.1 to 1 µM
Compound: CNC1=Nc2cc(C#C[C@@H](C)N3CCCC3)c(OC)cc2C12CCC2 [Compound 86]

Further lines, the compound ahead of its results:

Compound: CCNc1nc2cc(OCCCN3CCCC3)c(OC)cc2n1C [Compound 27]
IC50: 0.1 to 1 µM

Compound: COc1cc2c(cc1OCCCN1CCCC1)nc(NC1CCCC1)n2C [Compound 30]
IC50: 1 to 10 µM

Compound: COc1cc2c(cc1OCCCN1CCCC1)nc(C)n2C1CCCC1 [Compound 23, 1-cyclopentyl-6-methoxy-2-methyl-5-(3-(pyrrolidin-1-yl)propoxy)-1H-benzo[d]imidazole]
IC50: 1 to 10 µM

Compound: CCn1c(NC)nc2cc(CNCCN3CCCC3)c(OC)cc21 [Compound 41]
IC50: 0.1 to 1 µM

Compound: COc1cc2sc(N)nc2cc1OCCCN1CCCC1 [Compound 6, 6-methoxy-5-[3-(pyrrolidin-1-yl)propoxy]-1,3-benzothiazol-2-amine]
IC50: > 10 µM

Compound: CNc1nc2cc(CNCCN3CCCC3)c(OC)cc2n1C [Compound 37]
IC50: 0.1 to 1 µM

Compound: CCNc1nc2cc(OC[C@H](O)CN3CCCC3)c(OC)cc2n1C [Compound 31]
IC50: 0.1 to 1 µM

Compound: COc1cc2c(cc1OCCCN1CCCC1)nc(N)n2C1CCCC1 [Compound 3, 1-cyclopentyl-6-methoxy-5-(3-(pyrrolidin-1-yl)propoxy)-1H-benzo[d]imidazol-2-amine]
IC50: 0.1 to 1 µM
